Reference: patent US7087610B2, “Benzothiazole antiviral agents” (priority 2004, dated 2006)

Each compound was assayed on single-round infectious reporter virus (HIV-1 envelope) (assay: HIV-1 single-round infectious luciferase reporter virus infection of HeLa CD4 cells). Settings: Human immunodeficiency virus 1, HeLa, 72 h.
Format: cell-based
Procedure: Cells: (virus production) human embryonic kidney cell line, 293, was propagated in Dulbecco's Modified Eagle Medium (Invitrogen, Carlsbad, Calif.) containing 10% fetal Bovine serum (FBS, Sigma, St. Louis, Mo.); (virus infection) human epithelial cell line, HeLa, expressing the HIV-1 receptor CD4 was propagated in Dulbecco's Modified Eagle Medium (Invitrogen, Carlsbad, Calif.) containing 10% fetal Bovine serum (FBS, Sigma, St. Louis, Mo.) and supplemented with 0.2 mg/mL Geneticin (Invitrogen, Carlsbad, Calif.).
Virus: single-round infectious reporter virus was produced by co-transfecting human embryonic kidney 293 cells with an HIV-1 envelope DNA expression vector and a proviral cDNA containing an envelope deletion mutation and the luciferase reporter gene inserted in place of HIV-1 nef sequences. Transfections were performed using lipofectAMINE PLUS reagent as described by the manufacturer (Invitrogen, Carlsbad, Calif.).
Experiment: HeLa CD4 cells were plated in 96 well plates at a cell density of 1×10^4 cells per well in 100 μl Dulbecco's Modified Eagle Medium containing 10 % fetal Bovine serum and incubated overnight. Compound was added in a 2 μl dimethylsulfoxide solution, so that the final assay concentration would be ≦10 μM. Single-round infectious reporter virus (100 μL) in Dulbecco's Modified Eagle Medium was then added to the plated cells and compound at an approximate multiplicity of infection (MOI) of 0.01, resulting in a final volume of 200 μl per well. Virally-infected cells were incubated at 37 degrees Celsius, in a CO2 incubator, and harvested 72 h after infection. Viral infection was monitored by measuring luciferase expression from viral DNA in the infected cells using a luciferase reporter gene assay kit, as described by the manufacturer (Roche Molecular Biochemicals, Indianapolis, Ind.). Infected cell supernatants were removed and 50 μl of lysis buffer was added per well. After 15 minutes, 50 μl of freshly-reconstituted luciferase assay reagent was added per well. Luciferase activity was then quantified by measuring luminescence using a Wallac microbeta luminescence reader.
The percent inhibition for each compound was calculated by quantifying the level of luciferase expression in cells infected in the presence of each compound as a percentage of that observed for cells infected in the absence of compound and subtracting such a determined value from 100. The effective concentration for fifty percent inhibition (EC50) was calculated with Microsoft Excel Xlfit curve fitting software. For each compound, curves were generated from percent inhibition calculated at 10 different concentrations by using a four paramenter logistic model (model 205).
For C[C@@H]1CN(C(=O)c2ccccc2)CCN1C(=O)C(=O)c1ccc2sc(-n3cccc3)nc2c1 [Example 7], the EC50 was < 1000 nM.
C[C@@H]1CN(C(=O)c2ccccc2)CCN1C(=O)C(=O)c1ccc2sc(N)nc2c1 [Example 8] was tested, and the EC50 was < 1000 nM.
For C[C@@H]1CN(C(=O)c2ccccc2)CCN1C(=O)C(=O)c1ccc2scnc2c1 [Example 4, (R)-N-(benzoyl)-3-methyl-N′-[(benzothiazol-5-yl)-2-oxoacetyl]piperazine], the EC50 was < 1000 nM.
In the case of C[C@@H]1CN(C(=O)c2ccccc2)CCN1C(=O)C(=O)c1nc2ccccc2s1 [Example 2, (R)-N-(benzoyl)-3-methyl-N′-[(benzothiazol-2-yl)-2-oxoacetyl]-piperazine], the EC50 is reported as < 1000 nM.
With C[C@@H]1CN(C(=O)c2ccccc2)CCN1C(=O)C(C#N)c1nc2ccccc2s1 (stereo partly drawn) [Example 1, (R)-N-(benzoyl)-3-methyl-N′-[(benzothiazol-2-yl)-2-cyanoacetyl]-piperazine] the EC50 was < 1000 nM.
